From patent US12172989B2, “Histone acetyltransferase (HAT) inhibitor and use thereof” (SHANGHAI INSTITUTE OF MATERIA MEDICA, CHINESE ACADEMY OF …, priority 2018, dated 2024)

These molecules were tested against T1, histone acetyltransferase p300 (Homo sapiens, UniProt Q09472) (assay: Histone acetyltransferase (p300) activity assay (radioisotope, [3H]-Ac-CoA)). Conditions: p300 0.05 nM; histone peptide 600 nM, [3H]-Ac-CoA 250 nM; 60 min at room temperature; read-out: Inhibition rate IC50.
T1 construct: purchased BPS Corporation 50071
T1 sequence (Q09472 1284-1673 limits assumed): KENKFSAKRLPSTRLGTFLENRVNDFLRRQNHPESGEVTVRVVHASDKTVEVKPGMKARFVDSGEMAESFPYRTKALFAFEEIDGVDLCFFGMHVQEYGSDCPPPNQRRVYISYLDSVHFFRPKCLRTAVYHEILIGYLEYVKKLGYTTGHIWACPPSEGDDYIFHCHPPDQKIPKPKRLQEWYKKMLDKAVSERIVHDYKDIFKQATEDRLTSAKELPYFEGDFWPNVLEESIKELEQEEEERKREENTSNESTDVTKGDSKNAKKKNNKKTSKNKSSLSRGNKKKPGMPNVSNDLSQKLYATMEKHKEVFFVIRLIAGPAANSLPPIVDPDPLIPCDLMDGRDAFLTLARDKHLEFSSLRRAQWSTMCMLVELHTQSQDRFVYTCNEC
Format: biochemical
Procedure: The reaction was finally terminated with Ac-CoA (Sigma, Cat. No. A2056) without isotope labeling. If the activity of the acetyltransferase p300 was inhibited, the isotope signal cannot be detected on the substrate polypeptide. Therefore, the inhibitory activity of the compound against the acetyltransferase p300 was evaluated.
In the enzyme reaction system, 200 nL of a diluted compound (100% DMSO) was first transferred to a test plate using Echo, where the final concentration of the compound in the enzyme reaction system ranges from 0.25 to 5000 nM. Then 10 μL/well of p300 protein (final concentration of 0.05 nM) was transferred therein, and incubated with the compound for 15 min at room temperature. Then 10 μL/well of a substrate mixture (final concentrations of histone peptide and [^3H]—Ac-CoA were 600 nM and 250 nM, respectively) was added to start the enzyme-catalyzed reaction, and incubated at room temperature for 60 min. Then 10 µL/well of a 250 μM cold Ac-CoA solution was added to stop the reaction. Finally 25 μL/well of the reaction solution was transferred to a 384-well Flashplate (Perkin Elmer, Cat. No. SMP410A001PK), and incubated at room temperature for 1 h. The resultant was washed with double distilled water+0.1% Tween-20 three times. The signal value was read by using Microbeta. The data was analyzed by using GraphPad Prism 5.0 software to obtain IC50.

SMILES	IC50 [nM]
Cn1cc(-c2ccc3c(c2)S(=O)(=O)C[C@]32NC(=O)N(CC(=O)N3Cc4cc(F)ccc4OC[C@H]3C(F)(F)F)C2=O)cn1 [SYY-B130]	< 10
CNC(=O)Nc1ccc2c(c1)CCC21NC(=O)N(CC(=O)N2Cc3ccc(F)cc3CC[C@@H]2C2CC2)C1=O (some centres unmarked) [SYY-B034]	> 100
CNC(=O)Nc1ccc2c(c1)COCC21NC(=O)N(CC(=O)N2Cc3cc(F)ccc3OC[C@H]2C2CC2)C1=O (some centres unmarked) [SYY-B106]	< 20
CNC(=O)Nc1ccc2c(c1)CC[C@]21OC(=O)N(CC(=O)N2Cc3ccccc3CC[C@@H]2C(F)(F)F)C1=O [SYY-B028-1]	1100
CNC(=O)Nc1ccc2c(c1)OCC21NC(=O)N(CC(=O)N2Cc3cc(F)ccc3OC[C@H]2C2CC2)C1=O (some centres unmarked) [SYY-B156]	< 30
Cn1cc(-c2ccc3c(c2)OCC32NC(=O)N(CC(=O)N3Cc4cc(F)ccc4OC[C@H]3C3CC3)C2=O)cn1 (some centres unmarked) [SYY-B110]	< 10
CNC(=O)Nc1ccc2c(c1)CC[C@]21OC(=O)N(CC(=O)N2Cc3cc(F)ccc3OC[C@H]2C(F)(F)F)C1=O [SYY-B057-1]	8.9
CNC(=O)Nc1ccc2c(c1)CC[C@@]21OC(=O)N(CC(=O)N2Cc3ccc(F)cc3CC[C@@H]2C)C1=O [SYY-B022-2]	12
CNC(=O)Nc1ccc2c(c1)CC[C@@]21OC(=O)N(CC(=O)N2Cc3ccc(F)cc3CC[C@@H]2C(F)(F)F)C1=O [SYY-B032-2]	37
CNC(=O)Nc1cc2c(cc1F)C1(CC2)NC(=O)N(CC(=O)N2Cc3ccc(F)cc3CC[C@H]2C2CC2)C1=O (some centres unmarked) [ZB-P-30]	< 10
CNC(=O)Nc1ccc2c(c1)CCC21NC(=O)N(CC(=O)N2Cc3sccc3OC[C@H]2C(F)(F)F)C1=O (some centres unmarked) [SYY-B142]	< 50
CNC(=O)Nc1ccc2c(c1)CCC21NC(=O)N(CC(=O)N2Cc3ccsc3OC[C@H]2C2CC2)C1=O (some centres unmarked) [SYY-B122]	< 10
CNC(=O)Nc1ccc2c(c1)CCC21NC(=O)N(CC(=O)N2Cc3ccsc3CC[C@H]2C2CC2)C1=O (some centres unmarked) [SYY-B104]	< 20
CNC(=O)Nc1ccc2c(c1)CC[C@@]21OC(=O)N(CC(=O)N2Cc3ccccc3CC[C@@H]2C(C)C)C1=O [SYY-B020-2]	45
Cn1cc(-c2ccc3c(c2)CCC32OC(=O)N(CC(=O)N3Cc4sccc4OC[C@H]3C(F)(F)F)C2=O)cn1 (some centres unmarked) [SYY-B144]	< 50
CNC(=O)Nc1ccc2c(c1)CCC21NC(=O)N(CC(=O)N2Cc3cc(F)c(F)cc3CC[C@H]2C2CC2)C1=O (some centres unmarked) [SYY-B088]	< 10

SMILES	IC50 [nM]
CNC(=O)Nc1ccc2c(c1)COCC21OC(=O)N(CC(=O)N2Cc3cc(F)ccc3OC[C@H]2C2CC2)C1=O (some centres unmarked) [SYY-B112]	< 10
CNC(=O)Nc1cc2c(cc1F)C1(CC2)OC(=O)N(CC(=O)N2Cc3ccc(F)cc3CC[C@H]2C2CC2)C1=O (some centres unmarked) [ZB-P-31]	< 5
NC1(C(=O)Nc2ccc3c(c2)CC[C@]32OC(=O)N(CC(=O)N3Cc4ccc(F)cc4CC[C@@H]3C3CC3)C2=O)CCC1 [SYY-B040-1]	130
Cn1cc(-c2cnc3c(c2)CCC32NC(=O)N(CC(=O)N3Cc4cc(F)ccc4OC[C@H]3C(F)(F)F)C2=O)cn1 (some centres unmarked) [SYY-B163]	< 20
NC1(C(=O)Nc2ccc3c(c2)CC[C@@]32OC(=O)N(CC(=O)N3Cc4ccc(F)cc4CC[C@@H]3C3CC3)C2=O)CCC1 [SYY-B040-2]	160
Cn1cc(-c2ccc3c(c2)CCCC32OC(=O)N(CC(=O)N3Cc4cc(F)ccc4OC[C@H]3C3CC3)C2=O)cn1 (some centres unmarked) [SYY-B094]	< 100
Cn1cc(-c2ccc3c(c2)CCC32NC(=O)N(CC(=O)N3Cc4ccc(F)cc4CC[C@@H]3C3CC3)C2=O)cn1 (some centres unmarked) [SYY-B044]	> 50
CNC(=O)Nc1ccc2c(c1)CC[C@@]21OC(=O)N(CC(=O)N2Cc3ccccc3CC[C@@H]2C(F)(F)F)C1=O [SYY-B028-2]	55
CCC[C@H]1CCc2ccccc2CN1C(=O)CN1C(=O)O[C@]2(CCc3cc(NC(=O)NC)ccc32)C1=O [SYY-B024-1]	47
Cn1cc(-c2cc3c(cn2)C2(CC3)NC(=O)N(CC(=O)N3Cc4cc(F)ccc4OC[C@H]3C(F)(F)F)C2=O)cn1 (some centres unmarked) [SYY-B161]	< 100
CNC(=O)Nc1ccc2c(c1)CC[C@@]21OC(=O)N(CC(=O)N2Cc3sc(C)c(C)c3OC[C@H]2C2CC2)C1=O [SYY-B118-2]	6.6
CNC(=O)Nc1ccc2c(c1)CCC21NC(=O)N(CC(=O)N2Cc3sccc3OC[C@H]2C2CC2)C1=O (some centres unmarked) [SYY-B108]	< 50
Cn1cc(-c2ccc3c(n2)CCC32NC(=O)N(CC(=O)N3Cc4cc(F)ccc4OC[C@H]3C(F)(F)F)C2=O)cn1 (some centres unmarked) [SYY-B165]	< 20
CNC(=O)Cn1cc(-c2ccc3c(c2)CCC32NC(=O)N(CC(=O)N3Cc4ccc(F)cc4CC[C@@H]3C3CC3)C2=O)cn1 (some centres unmarked) [SYY-B046]	> 50
Cn1cc(-c2ccc3c(c2)C(F)C[C@]32NC(=O)N(CC(=O)N3Cc4cc(F)ccc4OC[C@H]3C3CC3)C2=O)cn1 (some centres unmarked) [SYY-B132-2]	< 10

Second part, the molecule after the results:

IC50 [nM]	SMILES
180	NC1(C(=O)Nc2ccc3c(c2)CC[C@]32OC(=O)N(CC(=O)N3Cc4ccc(F)cc4CC[C@@H]3C3CC3)C2=O)CC1 [SYY-B036-1]
16.8	CNC(=O)Nc1ccc2c(c1)CC[C@@]21OC(=O)N(CC(=O)N2Cc3sccc3OC[C@H]2C2CC2)C1=O [SYY-B100-2]
230	CNC(=O)Nc1ccc2c(c1)CC[C@]21OC(=O)N(CC(=O)N2Cc3cc(F)ccc3OC[C@@H]2C2CC2)C1=O [SYY-B030-1]
1500	NC1(C(=O)Nc2ccc3c(c2)CC[C@@]32OC(=O)N(CC(=O)N3Cc4ccc(F)cc4CC[C@@H]3C3CC3)C2=O)CC1 [SYY-B036-2]
640	CNC(=O)Nc1ccc2c(c1)CC[C@]21OC(=O)N(CC(=O)N2Cc3ccccc3CC[C@@H]2C2CC2)C1=O [SYY-B017-1]
1.37	CNC(=O)Nc1ccc2c(c1)CC[C@]21OC(=O)N(CC(=O)N2Cc3cc(F)c(F)cc3CC[C@H]2C2CC2)C1=O [SYY-B090-1]
42.3	CNC(=O)Nc1ccc2c(c1)CC[C@]21OC(=O)N(CC(=O)N2Cc3ccncc3CC[C@H]2C2CC2)C1=O [SYY-B097-1]
0.5	CNC(=O)Nc1ccc2c(c1)CC[C@@]21OC(=O)N(CC(=O)N2Cc3sccc3CC[C@H]2C2CC2)C1=O [SYY-B126-2]
230	CNC(=O)Nc1ccc2c(c1)CC[C@@]21OC(=O)N(CC(=O)N2Cc3cc(F)ccc3OC[C@@H]2C2CC2)C1=O [SYY-B030-2]
140	CNC(=O)Nc1ccc2c(c1)CC[C@]21OC(=O)N(CC(=O)N2Cc3sc(C)c(C)c3CC[C@H]2C2CC2)C1=O [SYY-B116-1]
2	CNC(=O)Nc1ccc2c(c1)CC[C@@]21OC(=O)N(CC(=O)N2Cc3sc(C)c(C)c3CC[C@H]2C2CC2)C1=O [SYY-B116-2]
1.58	CNC(=O)Nc1ccc2c(c1)CC[C@@]21OC(=O)N(CC(=O)N2Cc3cc(F)c(F)cc3CC[C@H]2C2CC2)C1=O [SYY-B090-2]
54	CNC(=O)Nc1ccc2c(c1)CC[C@]21OC(=O)N(CC(=O)N2Cc3ccc(F)cc3CC[C@@H]2C)C1=O [SYY-B022-1]
> 100	CC(C)(N)C(=O)Nc1ccc2c(c1)CC[C@]21OC(=O)N(CC(=O)N2Cc3ccc(F)cc3CC[C@@H]2C2CC2)C1=O [SYY-B037-2]
7.4	CNC(=O)Nc1ccc2c(c1)CC[C@@]21OC(=O)N(CC(=O)N2Cc3ncccc3CC[C@H]2C2CC2)C1=O [SYY-B096-2]
11.7	CNC(=O)Nc1ccc2c(c1)CC[C@]21OC(=O)N(CC(=O)N2Cc3ncccc3CC[C@H]2C2CC2)C1=O [SYY-B095-1]
13.9	CNC(=O)Nc1ccc2c(c1)CC[C@]21OC(=O)N(CC(=O)N2Cc3ccsc3CC[C@H]2C2CC2)C1=O [SYY-B102-1]
< 200	CNC(=O)Nc1ccc2c(c1)CC[C@]21OC(=O)N(CC(=O)N2Cc3cccnc3CC[C@H]2C2CC2)C1=O [SYY-B081-1]
22	CNC(=O)Nc1ccc2c(c1)CC[C@]21OC(=O)N(CC(=O)N2Cc3ccc(F)cc3CC[C@@H]2C2CC2)C1=O [SYY-B026-1]
4	CNC(=O)Nc1ccc2c(c1)CC[C@@]21OC(=O)N(CC(=O)N2Cc3ccncc3CC[C@H]2C2CC2)C1=O [SYY-B097-2]
> 100	CC(C)(N)C(=O)Nc1ccc2c(c1)CC[C@@]21OC(=O)N(CC(=O)N2Cc3ccc(F)cc3CC[C@@H]2C2CC2)C1=O [SYY-B038-2]
270	CNC(=O)Nc1ccc2c(c1)CC[C@@]21OC(=O)N(CC(=O)N2Cc3ccccc3CC[C@@H]2C2CC2)C1=O [SYY-B017-2]
20.6	CNC(=O)Nc1ccc2c(c1)CC[C@]21OC(=O)N(CC(=O)N2Cc3sccc3OC[C@H]2C2CC2)C1=O [SYY-B100-1]
0.55	CNC(=O)Nc1ccc2c(c1)CC[C@@]21OC(=O)N(CC(=O)N2Cc3ccsc3CC[C@H]2C2CC2)C1=O [SYY-B102-2]
< 10	CNC(=O)Nc1ccc2c(c1)CC[C@]21OC(=O)N(CC(=O)N2Cc3cnccc3CC[C@H]2C2CC2)C1=O [SYY-B136-1]
